In patent publication US20050042239A1, “Process for preparing biocide formulations” (priority 2003, published 2005):

Key:
algae = test: Dosing of micro-mixed emulsion to cooling tower water: control of algae; settings: 3 ppm isothiazolone in cooling water of cooling tower
Protocol: A 50 wt. % solution of 4,5-dichloro-2-octyl-3-isothiazolone in benzyl alcohol is fed to an array of slit shaped interdigital micro-mixers at a feed rate of 50 mL/minute, combined with water fed to the micro-mixer at a feed rate of 600 mL/minute. The water contains no surfactants. The resulting emulsion exiting the micro-mixer it is directly dosed to cooling water in a 50,000 gallon […] cooling tower, where is effectively distributed and re-circulated throughout the cooling water. After about 20 minutes, the isothiazolone concentration in the cooling water reaches a desired concentration of 3 ppm and the emulsion feed is stopped. […] Focusing micro-mixers also produce similar results as compared to the micro-mixers described above. Melted 2-octyl-3-isothiazolone as a neat liquid is fed to an array of slit shaped interdigital micro-mixers at a feed rate of 50 mL/minute, combined with water fed to the micro-mixer at a feed rate of 600 mL/minute. The water contains no surfactants and solvents. The resulting emulsion exiting the micro-mixer it is directly dosed to cooling water in a 50,000 gallon […] cooling tower, where is effectively distributed and re-circulated throughout the cooling water. After about 20 minutes, the isothiazolone concentration in the cooling water reaches a desired concentration of 3 ppm and the emulsion feed is stopped. […]

mold = test: Dosing of micro-mixed emulsion to paper pulp slurry tank: mold proofing of paper; settings: surfactant-free emulsion from 50 wt. % solution in benzyl alcohol (56 mL/minute) micro-mixed with water, charged to 10,000 liter pulp slurry tank
Protocol: A 10,000 liter pulp slurry tank has a continuous throughput averaging 6,600 liters/minute. A 50 wt. % solution of 4,5-dichloro-2-octyl-3-isothiazolone in benzyl alcohol is fed to an array of slit shaped interdigital micro-mixers at a feed rate of 56 mL/minute, combined with water fed to the micro-mixer at a feed rate of 600 mL/minute. The water contains no surfactants. The resulting emulsion exiting the micro-mixer is directly charged to water in the pulp slurry tank, where it is effectively distributed and re-circulated throughout the tank water. […] Focusing micro-mixers also produce similar results as compared to the micro-mixers described above.

Compound | control of algae in cooling water (algae; surfactant- and solvent-free emulsion from melted neat liquid micro-mixed with water) | control of algae in cooling water (algae; surfactant-free emulsion from 50 wt. % solution in benzyl alcohol micro-mixed with water) | mold proofing in paper prepared from treated pulp (mold)
CCCCCCCCn1sccc1=O [2-octyl-3-isothiazolone] | Effective control of algae | – | –
CCCCCCCCn1sc(Cl)c(Cl)c1=O [4,5-dichloro-2-octyl-3-isothiazolone] | – | Effective control of algae | effective mold proofing
